In article PMC11998406 (BMC Chemistry, 2025):

Key:
[1] = target: BChE (Equus caballus, UniProt P81908); experiment: Kinetic study of BChE inhibition; format: biochemical, horse; conditions: 13s at 0, 5, 20, 40 µM; butyrylthiocholine iodide 187.5-3000 µM
[2] = tested on: SH-SY5Y neuroblastoma cell line; experiment: Cell viability; format: cell-based; conditions: up to 25 µM

BChE, sequence (P81908 whole entry): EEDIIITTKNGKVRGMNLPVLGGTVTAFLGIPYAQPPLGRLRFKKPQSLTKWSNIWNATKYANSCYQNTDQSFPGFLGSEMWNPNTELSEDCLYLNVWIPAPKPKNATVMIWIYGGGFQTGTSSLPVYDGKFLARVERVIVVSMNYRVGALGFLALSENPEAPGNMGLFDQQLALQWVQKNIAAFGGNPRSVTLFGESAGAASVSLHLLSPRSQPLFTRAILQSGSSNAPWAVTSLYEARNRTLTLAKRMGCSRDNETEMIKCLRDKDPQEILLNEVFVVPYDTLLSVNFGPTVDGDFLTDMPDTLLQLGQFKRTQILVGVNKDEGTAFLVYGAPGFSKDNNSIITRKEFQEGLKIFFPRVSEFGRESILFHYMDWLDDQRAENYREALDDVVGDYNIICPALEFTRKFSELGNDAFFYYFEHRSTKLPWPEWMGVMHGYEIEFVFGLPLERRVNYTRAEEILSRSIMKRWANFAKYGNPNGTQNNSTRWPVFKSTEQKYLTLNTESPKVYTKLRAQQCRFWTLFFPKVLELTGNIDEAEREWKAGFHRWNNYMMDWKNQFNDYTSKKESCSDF

Cc1ccc(Cn2cc(COc3ccc(-c4nnc(-c5ccc([N+](=O)[O-])cc5)o4)cc3)nn2)cc1 [Compound 13s, 2-(4-((1-(4-Methylbenzyl)-1 H-1,2,3-triazol-4-yl)methoxy)phenyl)-5-(4-nitrophenyl)-1,3,4-oxadiazole]
mechanism of BChE inhibition (Lineweaver-Burk) [1]: competitive inhibition pattern | toxicity [2]: no toxicity
